US20050137251A1, “Dexanabinol and dexanabinol analogs regulate inflammation related genes” (priority 2002, published 2005)

Legend:
[1] = tested on: LoVo colorectal cancer cells; assay: Tumor growth of in vivo implanted LoVo colorectal cancer cells; set-up: species or system mice; conditions: end of 8 weeks treatment
Experimental: Once we have shown that dexanabinol and its analogs were inhibitors of tumor cell proliferation in vitro, we wished to test if our compounds were as efficient in vivo. For this purpose the tumor cells LoVo (originating from a colorectal tumor; ATCC # CCL-229) were grown in DMEM containing 4.5 g/L glucose, 2 mM Glutamine, 1% Pen/Strep and 10% heat inactivated fetal calf serum. The cells were harvested using Trypsin-EDTA, the detached cells were rinsed in PBS, and counted. Predetermined amounts (1×10^6 cells in constant volume of […]) were injected s.c. above the right femoral joint in nude CD-1 male mice (average weight 20-25 gr, Harlan, Israel). Each treatment group was composed of at least 7 animals. Each animal was clinically monitored daily. The growth of the tumor was also monitored during the daily visits but actual measurements were recorded once a week. When tumors reach the appropriate size, animals are treated with either vehicle, 5 ml/kg/day, or with our test compounds, in the range of 2.5 to 10 mg/kg/day.
Thirty-six out of the 40 implanted mice developed a visible tumor within 5 to 6 weeks from tumor implantation. All animals were treated first on the 36th-42nd day of tumor implantation and the treatment lasted 8 weeks. One animal died in each treatment group between the 5th and the 7th week of treatment. The results are expressed as percent of tumor growth at the various days of the treatment as compared to baseline day 1. The results are depicted in FIG. 7 where we can observe that the efficacy of dexanabinol is inversely proportional to its dose in the range tested. 2.5 mg/kg (▪) seems more efficient than 5 mg/kg (▴), itself better than 10 mg/kg (x), which has very little effect, if at all, as compared to vehicle (--♦--). By the end of the treatment, 2.5 mg/kg dexanabinol reduced the tumor growth by 89%, 5 mg/kg by 61% and 10 mg/kg by 21%.

IL-1β gene expression = IL-1β gene expression in MCAo mice brains; conditions: 5 mg/kg i.v., 18 hrs following MCAo
[2] = tested on: carrageenan induced paw edema; assay: Carrageenan induced paw edema; format: in vivo, mice; conditions: doses ranging from 0.2 to 0.5 mg/kg i.p., 3 hours after carrageenan
MCP-1 gene expression = MCP-1 gene expression in MCAo mice brains; conditions: 5 mg/kg i.v., 18 hours of MCAo
COX-2 gene expression = COX-2 gene expression in MCAo mice brains; conditions: 5 mg/kg i.v., 18 hrs following MCAo
[3] = tested on: TH-immunoreactive cells at the SNpc (MPTP-induced dopaminergic toxicity); assay: MPTP short-term model: TH immunoreactive cells at the SNpc; format: in vivo, mice
Experimental: The mice (C57/BL male mice, average weight 30 g, Harlan, Israel) were administered i.p. with 4 injections of MPTP (Sigma, USA) (20 mg/kg, 5 ml/kg) in saline (Teva Medical Israel) at 2 hours interval on day 1. The test compounds and vehicle control (cremophor:ethanol diluted in saline) were injected i.p. once just before the first MPTP administration at a volume dose of 5 ml/kg. Dexanabinol was tested at 10, 20, and 30 mg/kg and PRS-211,220 was tested at 0.5, 1, and 5 mg/kg. Each treatment group was composed of at least seven animals. Seven days following the MPTP treatment the animals are euthanized by i.p. administration of 100 mg/kg pentobarbitone sodium (CTS, Israel) and their brains are removed for tyrosine hydroxylase (TH) detection using immunohistochemistry.
Brains were fixed by immersion in 4% formaldehyde for at least 72 hours. The brains were then washed with PBS and transferred to 30% sucrose in PBS until they sank. […] Quantitative analysis was carried out by counting the number of TH-immunoreactive cells/mm^2 at the widest area of the SNpc.
Treatment of the animals with the test compounds results in a dose-dependent preservation of the TH-IR cells. Percent preservation is calculated by dividing the number of rescued cells (treatment-MPTP) by the maximal possible number of rescued cells (saline-MPTP). […]

IL-2 gene expression = IL-2 gene expression in MCAo mice brains; conditions: 5 mg/kg i.v., 18 hrs following MCAo

## CCCCCCC(C)(C)c1cc(O)c2c(c1)OC(C)(C)[C@H]1CC=C(CO)C[C@H]21 [dexanabinol, 1,1-dimethylheptyl-(3S,4S)-7-hydroxy-Δ^6-tetrahydrocannabinol]
[1]; 2.5 mg/kg/day
  Reduction of tumor growth: 89%
[1]; 5 mg/kg/day
  Reduction of tumor growth: 61%
[1]; 10 mg/kg/day
  Reduction of tumor growth: 21%
IL-1β gene expression
  Modulation of IL-1β gene expression: not modulated
[2]
  Reduction in paw thickness: about 29%
MCP-1 gene expression
  Reduction of MCP-1 gene expression increase vs vehicle: 41%
COX-2 gene expression
  Reduction of COX-2 gene activation vs vehicle: 38%
[3]; 20 mg/kg i.p., seven days after MPTP
  Preservation of TH-IR cells: about 25%
[3]; 30 mg/kg vs 20 mg/kg
  Effect of increasing the dose on TH-IR cell preservation: no significant effect
IL-2 gene expression
  Reduction of IL-2 gene activation vs vehicle: 177%
